Test results taken from US12138291B2, “Hemostatic composition and hemostatic method using hemostatic composition” (3-D MATRIX, LTD., priority 2015, dated 2024).

How the values were obtained:
[1] = Storage elastic modulus of peptide solutions before application (frequency sweep test); assay type: physicochemical; details: shear stress 1 Pa
Protocol: Frequency sweep tests were conducted from 1 rad/sec to 10 rad/sec at a shear stress of 1 Pa, and the storage elastic modulus at 10 rad/sec was selected as data. As for a viscosity before gelling, tests were conducted for a soaking time of 2 min by loading each peptide solution between 20 mm plates with a gap distance of 500 um.

[2] = system: bleeding site of the porcine liver; experiment: Hemostasis of oozing bleeding created by abrading the porcine liver, usual application vs spray application; assay type: in vivo, pig; details: for hemostasis outcome: peptide 1.5% (FIG. 9)
Description: Oozing bleeding was created by abrading the porcine liver using a metal file. A self-organizing peptide solution was applied to the bleeding by usual application or spray application and evaluated for its hemostatic effect and applied amount.
• Animal species: pig • Breed: LWD • Sex: female • The number of animals introduced: 2 • Age in days at the time of introduction: any Body weight at the time of introduction: 50 kg Institute receiving the animals: Narita experimental laboratory of NAS Laboratory Co., Ltd. • Distributor of the animals: Ishige Tikusan • Acclimatization period: approximately 7 days after introduction • Quarantine: the absence of abnormalities was confirmed by quarantine under clinical observation at the time of introduction and during the acclimatization period. • Individual discrimination: ear tag <Rearing Conditions> (1) Rearing environment
Atropine sulfate was intramuscularly administered at 0.05 mg/kg (dosing volume: 0.1 mL/kg) to each animal. Approximately 30 minutes later, 20 mg/kg (dosing volume: 0.4 mL/kg) of ketamine hydrochloride and 4 mg/kg (dosing volume: 0.2 mL/kg) of xylazine hydrochloride were mixed and intramuscularly administered thereto. Each anesthetic was introduced by the intramuscular administration to the ear root using a disposable syringe (Terumo Corp.) attached with an 18 G injection needle (Terumo Corp.). Then, a tracheal tube (TOP intratracheal tube, TOP Corp.) was intubated, and the anesthesia was maintained with isoflurane using an inhalation anesthesia apparatus SUBARU-KJ02 (Mikasa Kantou Syoukai Co., Ltd.) and a mechanical ventilator (COMPOS β-EV, Metran Co., Ltd.). The perioperative isoflurane concentration was set to 1 to 3%, and the amount of oxygen was set to 2 L/min. The intrapulmonary pressure of the mechanical ventilator was set to 15 cm H2O, and the respiratory rate was set to 15 times/min. Each animal was placed supine on an operating table and covered with a sterilized drape.
• 1. Each completely anesthetized pig was laparotomized by abdominal midline incision using a surgical knife and an electric surgical knife to expose the liver. • 2. Oozing bleeding was created by abrading the liver using a metal file. • 3. Each test substance was applied to the bleeding inclined plane by usual application (*1) or spray application (*2). • 4. The time from after the end of application to the end of assessment of the completion of hemostasis was measured using a stopwatch (*3). The amount of each test substance used until the end of the test was recorded. • *1: A syringe was packed with the peptide solution (test substance), and the peptide solution was pushed out of a nozzle at the tip of the syringe and thereby applied to the subject (see the syringe of FIG. 1). • 2: A syringe (equivalent to that of FIG. 1) packed with the peptide solution (test substance) was loaded in a spray gun, and compressed air was blown to a nozzle at the tip of the syringe using a compressor so that the peptide solution pushed out of the nozzle was sprayed to the subject. The spray pressure was generally 0.5 to 1.5 [kgf/cm2], though differing depending on the viscosity of each test substance, the status of bleeding, and the distance to the application site. • 3: If bleeding was not weakened after initial application (if it was judged that this condition would not lead to hemostasis), additional application was appropriately performed. The time of completion of initial application was defined as the start of measurement, and the time of completion of hemostasis assessment was defined as the end of measurement. <Results>

[3] = peptide concentrations of 1.5% or higher (1.5%, 2.0%, 2.5%)

Sequence	Storage elastic modulus G′ (Pa) (mean: N = 3) ([1]; peptide 1.0% by weight, pH 3.0, at 10 rad/sec)	Storage elastic modulus G′ (Pa) (mean: N = 3) ([1]; peptide 1.5% by weight, pH 3.0, at 10 rad/sec)	amount of the solution applied until hemostasis, spray application group compared with usual application group ([2]; peptide concentration 1.0%)	hemostasis completion time, spray application group compared with usual application group ([2]; peptide concentration 1.0%)	amount of the solution applied until hemostasis, spray application group compared with usual application group ([2]; peptide concentration 1.5%)	hemostasis completion time, spray application group compared with usual application group ([2]; peptide concentration 1.5%)	Storage elastic modulus G′ (Pa) (mean: N = 3) ([1]; peptide 1.0% by weight, pH no treatment, at 10 rad/sec)	Storage elastic modulus G′ (Pa) (mean: N = 3) ([1]; peptide 1.5% by weight, pH no treatment, at 10 rad/sec)	Storage elastic modulus G′ (Pa) (mean: N = 3) ([1]; peptide 2.0% by weight, pH no treatment, at 10 rad/sec)	Storage elastic modulus G′ (Pa) (mean: N = 3) ([1]; peptide 2.5% by weight, pH no treatment, at 10 rad/sec)	amount of the solution applied until hemostasis, spray application group compared with usual application group [2, 3]	hemostasis completion time, spray application group compared with usual application group [2, 3]	Storage elastic modulus G′ (Pa) (mean: N = 3) ([1]; peptide 1.0% by weight, pH 7.5, at 10 rad/sec)	Storage elastic modulus G′ (Pa) (mean: N = 3) ([1]; peptide 1.5% by weight, pH 7.5, at 10 rad/sec)	Storage elastic modulus G′ (Pa) (mean: N = 3) ([1]; peptide 2.0% by weight, pH 7.5, at 10 rad/sec)	hemostasis outcome ([2]; spray application)	hemostasis outcome ([2]; usual application)
IEIKIEIKIEIKI [Peptide No. 2]	349.0	2,309 Pa	no significant difference	no significant difference	smaller amount of the solution applied until hemostasis	evidently resulted in a shorter hemostasis completion time											
RADARADARADARADA [Peptide No. 1]			smaller amount of the solution applied until hemostasis	tendencies of a shorter hemostasis completion time			30	75	141	503	smaller amount of the solution applied until hemostasis	evidently resulted in a shorter hemostasis completion time					
RLDLRLALRLDLR (Ac-RLDLRLALRLDLR-NH2) [Peptide No. 3, self-assembling peptide, solution in purified water]													75	239	439	succeeded in hemostasis	failed in hemostasis
